This note sets out measurements from patent publication US20230114241A1, “METHODS OF TREATING EPILEPSY USING THE SAME” (Trevena, Inc., priority 2019, published 2023).

For assay [1], the target named is T1, human sphingosine-1-phosphate receptor 1 (S1P1) (Homo sapiens, UniProt P21453). The assay is described as follows: β-Arrestin2 recruitment assay (PathHunter), S1P1 CHO-K1 cells. The format is cell-based. The essentials:
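Agonist-driven β-arrestin2 recruitment measured by β-galactosidase complementation after 60 min compound exposure at 37 °C and 1 h detection at room temperature. Cells: stable CHO-K1 line expressing tagged human S1P1 with EA-β-arrestin2, plated the night before. Data expressed relative to fingolimod.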
Target sequence in this assay (P21453 whole entry): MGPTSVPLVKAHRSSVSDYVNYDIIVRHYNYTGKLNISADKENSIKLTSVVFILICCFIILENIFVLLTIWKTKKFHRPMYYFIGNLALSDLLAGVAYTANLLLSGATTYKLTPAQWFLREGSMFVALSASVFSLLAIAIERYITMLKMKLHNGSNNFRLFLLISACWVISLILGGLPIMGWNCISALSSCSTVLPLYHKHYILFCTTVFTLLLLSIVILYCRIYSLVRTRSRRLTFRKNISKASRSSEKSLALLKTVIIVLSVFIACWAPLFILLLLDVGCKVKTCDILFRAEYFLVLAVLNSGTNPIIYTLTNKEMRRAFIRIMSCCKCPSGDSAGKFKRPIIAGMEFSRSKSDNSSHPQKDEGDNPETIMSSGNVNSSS
Target sequence in this assay (P32121 whole entry partner): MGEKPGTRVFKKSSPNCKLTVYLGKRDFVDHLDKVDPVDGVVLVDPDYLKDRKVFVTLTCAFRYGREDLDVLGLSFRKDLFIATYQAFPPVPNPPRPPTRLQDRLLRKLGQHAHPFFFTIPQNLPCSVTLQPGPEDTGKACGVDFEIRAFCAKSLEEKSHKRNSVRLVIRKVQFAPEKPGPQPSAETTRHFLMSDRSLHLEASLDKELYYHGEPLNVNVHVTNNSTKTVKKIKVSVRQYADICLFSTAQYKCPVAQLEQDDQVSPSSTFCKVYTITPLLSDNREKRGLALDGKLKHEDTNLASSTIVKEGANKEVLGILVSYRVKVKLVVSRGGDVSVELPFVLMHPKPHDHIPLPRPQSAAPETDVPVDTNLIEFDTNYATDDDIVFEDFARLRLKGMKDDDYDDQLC

Assay [2] deals with T1, human sphingosine-1-phosphate receptor 1 (S1P1). The assay is described as follows: Inhibition of cAMP production (HTRF cAMP HiRange), S1P1 CHO-K1 cells. The format is cell-based. The essentials: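 Intracellular cAMP changes read by TR-FRET (HTRF HiRange, 1 h room temperature) after 30 min compound exposure at 37 °C. Cells: overnight-plated CHO-K1 stably expressing tagged human S1P1 with EA-β-arrestin2. Responses normalized to fingolimod.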
Target sequence in this assay (P21453 whole entry): as the sequence (P21453 whole entry) above

[3] abbreviates: CHO-K1, efficacy normalized to maximum efficacy of fingolimod, read-out: hS1P1 B-arrestin2 SPAN.
[4] abbreviates: β-arrestin2 recruitment, S1P1, read-out: hS1P1 B-arrestin2 pEC50 (converted).
Setting [5] is: CHO-K1, efficacy normalized to maximum efficacy of fingolimod, read-out: hS1P1 CAMP SPAN.
Where [6] appears, read: inhibition of cAMP production, S1P1, read-out: hS1P1 CAMP pEC50 (converted).
[7] abbreviates: CHO-K1, β-arrestin2 recruitment, efficacy normalized to maximum efficacy of fingolimod, read-out: hS1P1 B-arrestin2 SPAN.
[8] abbreviates: β-arrestin2 recruitment, potency, read-out: hS1P1 B-arrestin2 pEC50 (converted).
Where [9] appears, read: CHO-K1, inhibition of cAMP production, efficacy normalized to maximum efficacy of fingolimod, read-out: hS1P1 CAMP SPAN.
The mark [10] stands for this setting: inhibition of cAMP production, potency, read-out: hS1P1 CAMP pEC50 (converted).
Where [11] appears, read: CHO-K1, read-out: hS1P1 B-arrestin2 SPAN.
[12] abbreviates: CHO-K1, read-out: hS1P1 CAMP SPAN.

For `CCC1(CC)CC(=O)c2cc(-c3nc(-c4cncc(C(N)=O)c4)no3)ccc2O1` [Compound 537, 5-(5-(2,2-diethyl-4-oxochroman-6-yl)-1,2,4-oxadiazol-3-yl)nicotinamide], the Emax in assay [1] (setting [3]) was under 75%; in assay [2] (setting [5]), over 75%. Also, the results for the EC50 in assay [1] (setting [4]) and in assay [2] (setting [6]) were under 10 µM and under 0.316 µM, respectively.
For `N#Cc1cc(-c2nnc(-c3ccc4[nH]c(=O)oc4c3)o2)ccc1NCCF` [Compound 487, 2-[(2-fluoroethyl)amino]-5-[5-(2-oxo-2,3-dihydro-1,3-benzoxazol-6-yl)-1,3,4-oxadiazol-2-yl]benzonitrile] the same measures were over 75%, over 75%, under 10 µM and over 0.316 µM.
For `CC(C)n1ccc2cc(-c3noc(-c4ccccc4C(F)(F)F)n3)ccc21` [Compound 390, 3-(1-isopropyl-1H-indol-5-yl)-5-(2-(trifluoromethyl)phenyl)-1,2,4-oxadiazole], the Emax in assay [1] (setting [3]) was under 75%; in assay [2] (setting [5]), over 75%. Also, the values for the EC50 in assay [1] (setting [4]) and in assay [2] (setting [6]) were under 10 µM and under 0.316 µM, respectively.
As for `CCCC1(CCC)CC(=O)c2cc(-c3nc(-c4cccnc4)no3)ccc2O1` [Compound 218, 2,2-dipropyl-6-[3-(pyridin-3-yl)-1,2,4-oxadiazol-5-yl]-3,4-dihydro-2H-1-benzopyran-4-one], the Emax in assay [1] (setting [7]) and in assay [2] (setting [9]) was over 75% in each case. Besides, the figures for the EC50 in assay [1] (setting [8]) and in assay [2] (setting [10]) were over 10 µM and over 0.316 µM, respectively.
On to `CC(C)n1nnc2cc(-c3noc(-c4ncccc4O)n3)ccc21` [Compound 602, 2-{3-[1-(propan-2-yl)-1H-1,2,3-benzo-triazol-5-yl]-1,2,4-oxadiazol-5-yl}pyridin-3-ol], for which the values for the Emax in assay [1] (setting [3]) and in assay [2] (setting [5]) were over 75% and under 75%, respectively. For the same compound, the EC50 is over 10 µM in assay [1] (setting [4]) and over 0.316 µM in assay [2] (setting [6]).
The corresponding values for `Cc1nccnc1-c1nc(-c2ccc3c(c2)nnn3CC(C)(C)CO)no1` [Compound 540, 2,2-dimethyl-3-(5-(5-(3-methylpyrazin-2-yl)-1,2,4-oxadiazol-3-yl)-1H-benzo[d] [1,2,3]triazol-1-yl)propan-1-ol] are under 75%, under 75%, over 10 µM and over 0.316 µM.
For `O=C1CC2(CCOCC2)Oc2ccc(-c3nc(-c4ccncc4)no3)cc21` [Compound 148, 6-[3-(pyridin-4-yl)-1,2,4-oxadiazol-5-yl]-3,4-dihydrospiro [1-benzopyran-2,4′-oxane]-4-one], the Emax in assay [1] (setting [7]) and in assay [2] (setting [9]) was under 75% throughout. In addition, the EC50 in assay [1] (setting [8]) is over 10 µM; in assay [2] (setting [10]) it was over 0.316 µM.
As for `CC(C)n1ccc2cc(-c3nc(-c4ccccc4F)ns3)ccc21` [Compound 374, 5-[3-(2-fluorophenyl)-1,2,4-thiadiazol-5-yl]-1-(propan-2-yl)-1H-indole], the Emax in assay [1] (setting [3]) and in assay [2] (setting [5]) was under 75% throughout. Besides, the EC50 in assay [1] (setting [4]) is over 10 µM; in assay [2] (setting [6]), over 0.316 µM.
Regarding `CCCn1nnc2cc(-c3nc(-c4ccc(C(F)(F)F)c(F)c4)no3)ccc21` [Compound 193, 5-{3-[3-fluoro-4-(trifluoromethyl)phenyl]-1,2,4-oxadiazol-5-yl}-1-propyl-1H-1,2,3-benzotriazole], the Emax in assay [1] (setting [7]) and in assay [2] (setting [9]) was under 75% each time. In addition, the EC50 was over 10 µM in assay [1] (setting [8]) and over 0.316 µM in assay [2] (setting [10]).
As to `CCC1(CC)CC(=O)c2cc(-c3noc(-c4ccc(NCC5CC5)c(C#N)c4)n3)ccc2O1` [Compound 444, 2-((cyclopropyl-methyl)amino)-5-(3-(2,2-diethyl-4-oxochroman-6-yl)-1,2,4-oxadiazol-5-yl)benzonitrile], the Emax in assay [1] (setting [3]) and in assay [2] (setting [5]) was under 75% in each case. Also, the figures for the EC50 in assay [1] (setting [4]) and in assay [2] (setting [6]) were under 10 µM and over 0.316 µM, respectively.
Consider `CC(C)n1ccc2cc(-c3noc(-c4cccc(F)c4)n3)ccc21` [Compound 394, 5-(3-fluorophenyl)-3-(1-isopropyl-1H-indol-5-yl)-1,2,4-oxadiazole], for which the Emax in assay [1] (setting [3]) and in assay [2] (setting [5]) was under 75% each time. For the same compound, the EC50 was under 10 µM in assay [1] (setting [4]) and over 0.316 µM in assay [2] (setting [6]).
As to `O=C1CNc2ccc(-c3nc(-c4cn[nH]c4)no3)cc2N1` [Compound 645, 7-[3-(1H-pyrazol-4-yl)-1,2,4-oxadiazol-5-yl]-1,2,3,4-tetrahydro-quinoxalin-2-one], the Emax in assay [1] (setting [3]) was under 75%; in assay [2] (setting [5]), over 75%. Also, the figures for the EC50 in assay [1] (setting [4]) and in assay [2] (setting [6]) were over 10 µM and over 0.316 µM, respectively.
Regarding `CCC1(CC)CC(=O)c2cc(-c3ncc(-c4ccncc4)cn3)ccc2O1` [Compound 510, 2,2-diethyl-6-(5-(pyridin-4-yl)pyrimidin-2-yl)chroman-4-one], the values for the Emax in assay [1] (setting [3]) and in assay [2] (setting [5]) were over 75% and under 75%, respectively. In addition, the EC50 in assay [1] (setting [4]) was under 10 µM; in assay [2] (setting [6]) it was under 0.316 µM.
For `COc1ncccc1-c1noc(-c2ccc3c(c2)nnn3C(C)C)n1` [Compound 619, 5-(1-isopropyl-1H-benzo[d][1,2,3]triazol-5-yl)-3-(2-methoxy-pyridin-3-yl)-1,2,4-oxadiazole] the same measures were over 75%, over 75%, under 10 µM and under 0.316 µM.
For `CCOP(=O)(Cc1ccc(-c2noc(-c3ccc4c(c3)nnn4C(C)C)n2)cc1)OCC` [Compound 583, diethyl[(4-{5-[1-(propan-2-yl)-1H-1,2,3-benzotriazol-5-yl]-1,2,4-oxadiazol-3-yl}phenyl)methyl]phosphonate], the EC50 was over 10 µM in assay [1] and over 0.316 µM in assay [2]. Also, the Emax in assay [1] (setting [11]) and in assay [2] (setting [12]) was under 75% each time.
As to `COc1ccccc1-c1nc(-c2ccc3c(c2)nnn3CC(C)(C)CO)no1` [Compound 525, 3-(5-(5-(2-methoxy-phenyl)-1,2,4-oxadiazol-3-yl)-1H-benzo[d][1,2,3]triazol-1-yl)-2,2-dimethyl-propan-1-ol], the Emax in assay [1] (setting [3]) and in assay [2] (setting [5]) was over 75% each time. Further, the figures for the EC50 in assay [1] (setting [4]) and in assay [2] (setting [6]) were over 10 µM and over 0.316 µM, respectively.
As to `FC(F)(F)Oc1cccc(-c2nc(-c3ccc4c(c3)nnn4C3CCCC3)no2)c1` [Compound 10, 3-(1-cyclopentyl-1H-benzo[d][1,2,3]triazol-5-yl)-5-(3-(trifluoro-methoxy)phenyl)-1,2,4-oxadiazole], the EC50 in assay [1] is over 10 µM; in assay [2], over 0.316 µM. The Emax in assay [1] (setting [11]) and in assay [2] (setting [12]) was under 75% each time.
For the compound `CC(C)n1nnc2cc(-c3ncc(-c4ccc(F)cc4)s3)ccc21` [Compound 37, 5-(4-fluorophenyl)-2-(1-isopropyl-benzotriazol-5-yl)thiazole], the Emax in assay [1] (setting [7]) and in assay [2] (setting [9]) was under 75% in each case. In addition, the EC50 in assay [1] (setting [8]) is over 10 µM; in assay [2] (setting [10]), over 0.316 µM.
Consider `Brc1ccccc1-c1nc(-c2ccc3c(c2)nnn3C2CCCC2)no1` [Compound 40, 5-(2-bromophenyl)-3-(1-cyclopentyl-1H-benzo[d][1,2,3]triazol-5-yl)-1,2,4-oxadiazole], for which the Emax in assay [1] (setting [7]) and in assay [2] (setting [9]) was over 75% in each case. Moreover, the EC50 in assay [1] (setting [8]) is under 10 µM; in assay [2] (setting [10]) it was under 0.316 µM.
On to `CCC1(CC)CC(=O)c2cc(-c3nc(-c4cncc(C)c4)no3)ccc2O1` [Compound 563, 2,2-diethyl-6-(3-(5-methylpyridin-3-yl)-1,2,4-oxadiazol-5-yl)chroman-4-one], for which the Emax was under 75% in assay [1] (setting [3]) and over 75% in assay [2] (setting [5]). The EC50 was under 10 µM in assay [1] (setting [4]) and under 0.316 µM in assay [2] (setting [6]).
The corresponding values for `CC(C)n1ccc2cc(-c3nc(-c4ccccc4C(F)(F)F)cs3)cnc21` [Compound 408, 2-(1-isopropylpyrrolo[2,3-b]pyridin-5-yl)-4-[2-(trifluoromethyl)phenyl] thiazole] are under 75%, over 75%, over 10 µM and over 0.316 µM.
As to `O=C1CNc2ccc(-c3nc(-c4cccnc4)no3)cc2N1` [Compound 629, 7-[3-(pyridin-3-yl)-1,2,4-oxadiazol-5-yl]-1,2,3,4-tetra-hydroquinoxalin-2-one], the results for the Emax in assay [1] (setting [3]) and in assay [2] (setting [5]) were under 75% and over 75%, respectively. In addition, the EC50 is over 10 µM in assay [1] (setting [4]) and over 0.316 µM in assay [2] (setting [6]).
The corresponding values for `CC(C)n1nnc2cc(-c3noc(-c4ccccc4N(C)C)n3)ccc21` [Compound 615, N,N-dimethy1-2-{3-[1-(propan-2-yl)-1H-1,2,3-benzotriazol-5-yl]-1,2,4-oxadiazol-5-yl}aniline] are over 75%, over 75%, under 10 µM and under 0.316 µM.
In the case of `CC(C)n1nnc2cc(-c3noc(-c4ccccc4Br)n3)ccc21` [Compound 43, 5-(2-bromophenyl)-3-(1-isopropyl-1H-benzo[d][1,2,3]triazol-5-yl)-1,2,4-oxadiazole], the Emax in assay [1] (setting [7]) and in assay [2] (setting [9]) was over 75% throughout. Also, the results for the EC50 in assay [1] (setting [8]) and in assay [2] (setting [10]) were under 10 µM and under 0.316 µM, respectively.
